# In ChEMBL document CHEMBL3885881, “DrugMatrix”:
# Organism: Rattus norvegicus
# Assay: DrugMatrix - Regimen: Daily Repeat
# Assay type: toxicity, organism-based, Sprague-Dawley
# Design: regimen Daily Repeat, gender Male, age 6-8 weeks
# Conditions: in vivo, po, route oral GAVAGE, vehicle .5 % CMC; for ABSOLUTE BASOPHIL / ABSOLUTE EOSINOPHIL / ABSOLUTE LYMPHOCYTE / ABSOLUTE MONOCYTE / ABSOLUTE SEGMENTED NEUTROPHIL / BASOPHIL / EOSINOPHIL / ERYTHROCYTE COUNT / HEMATOCRIT / HEMOGLOBIN / LEUKOCYTE COUNT / LYMPHOCYTE / MEAN CORPUSCULAR HEMOGLOBIN / MEAN CORPUSCULAR HEMOGLOBIN CONCENTRATION / MEAN CORPUSCULAR VOLUME / MONOCYTE / NEUTROPHIL / NUCLEATED RED BLOOD CELLS / PLATELET COUNT: tissue Blood; for ALANINE AMINOTRANSFERASE / ALBUMIN / ALKALINE PHOSPHATASE / ASPARTATE AMINOTRANSFERASE / BLOOD UREA NITROGEN / CARBON DIOXIDE / CHLORIDE / CHOLESTEROL / CREATINE PHOSPHOKINASE / CREATININE / GLUCOSE / LACTATE DEHYDROGENASE / LIPASE / PHOSPHORUS / POTASSIUM / SODIUM / TOTAL BILIRUBIN / TOTAL PROTEIN / URIC ACID: tissue Plasma
# [1] = 0 mg/kg, 72 h, dose level Control, time 3 day
# [2] = 0 mg/kg, 120 h, dose level Control, time 5 day
# [3] = 47 mg/kg, 72 h, dose level High, time 3 day
smiles,measurement,setting,value
CN(C)C(=O)C(CCN1CCC(O)(c2ccc(Cl)cc2)CC1)(c1ccccc1)c1ccccc1 [LOPERAMIDE],ABSOLUTE BASOPHIL,[1],0 CELLS/uL
same,ABSOLUTE EOSINOPHIL,[1],0 CELLS/uL
same,ABSOLUTE LYMPHOCYTE,[1],12191.17 CELLS/uL
same,ABSOLUTE MONOCYTE,[1],183.17 CELLS/uL
same,ABSOLUTE SEGMENTED NEUTROPHIL,[1],1192.33 CELLS/uL
same,BASOPHIL,[1],0%
same,EOSINOPHIL,[1],0%
same,ERYTHROCYTE COUNT,[1],5.51 x10E6/uL
same,HEMATOCRIT,[1],35.45%
same,HEMOGLOBIN,[1],13.82 G/DL
same,LEUKOCYTE COUNT,[1],13.57 x10E3/uL
same,LYMPHOCYTE,[1],89.83%
same,MEAN CORPUSCULAR HEMOGLOBIN,[1],25.1 pg
same,MEAN CORPUSCULAR HEMOGLOBIN CONCENTRATION,[1],38.98 G/DL
same,MEAN CORPUSCULAR VOLUME,[1],64.42 fL
same,MONOCYTE,[1],1.33%
same,NEUTROPHIL,[1],8.83%
same,NUCLEATED RED BLOOD CELLS,[1],0 /100WBC
same,PLATELET COUNT,[1],1118.17 x10E3/uL
same,ALANINE AMINOTRANSFERASE,[1],55 u/L
same,ALBUMIN,[1],4.15 G/DL
same,ALKALINE PHOSPHATASE,[1],449.5 u/L
same,ASPARTATE AMINOTRANSFERASE,[1],112.83 u/L
same,BLOOD UREA NITROGEN,[1],17.33 mg/dL
same,CARBON DIOXIDE,[1],29.5 mmol/L
same,CHLORIDE,[1],101 MEQ/L
same,CHOLESTEROL,[1],70 mg/dL
same,CREATINE PHOSPHOKINASE,[1],1325.83 u/L
same,CREATININE,[1],0.18 mg/dL
same,GLUCOSE,[1],171.5 mg/dL
same,LACTATE DEHYDROGENASE,[1],386 u/L
same,LIPASE,[1],10 u/L
same,PHOSPHORUS,[1],11.57 mg/dL
same,POTASSIUM,[1],6.21 MEQ/L
same,SODIUM,[1],141.65 MEQ/L
same,TOTAL BILIRUBIN,[1],0.15 mg/dL
same,TOTAL PROTEIN,[1],5.75 G/DL
same,URIC ACID,[1],1.28 mg/dL
same,ABSOLUTE BASOPHIL,[2],0 CELLS/uL
same,ABSOLUTE EOSINOPHIL,[2],138.17 CELLS/uL
same,ABSOLUTE LYMPHOCYTE,[2],13283.17 CELLS/uL
same,ABSOLUTE MONOCYTE,[2],303.83 CELLS/uL
same,ABSOLUTE SEGMENTED NEUTROPHIL,[2],1308.17 CELLS/uL
same,BASOPHIL,[2],0%
same,EOSINOPHIL,[2],1%
same,ERYTHROCYTE COUNT,[2],5.32 x10E6/uL
same,HEMATOCRIT,[2],33.8%
same,HEMOGLOBIN,[2],13.63 G/DL
same,LEUKOCYTE COUNT,[2],15.03 x10E3/uL
same,LYMPHOCYTE,[2],88.33%
same,MEAN CORPUSCULAR HEMOGLOBIN,[2],25.68 pg
same,MEAN CORPUSCULAR HEMOGLOBIN CONCENTRATION,[2],40.35 G/DL
same,MEAN CORPUSCULAR VOLUME,[2],63.67 fL
same,MONOCYTE,[2],1.83%
same,NEUTROPHIL,[2],8.83%
same,NUCLEATED RED BLOOD CELLS,[2],0 /100WBC
same,PLATELET COUNT,[2],1097.5 x10E3/uL
same,ALANINE AMINOTRANSFERASE,[2],54.5 u/L
same,ALBUMIN,[2],4.27 G/DL
same,ALKALINE PHOSPHATASE,[2],337 u/L
same,ASPARTATE AMINOTRANSFERASE,[2],94.67 u/L
same,BLOOD UREA NITROGEN,[2],17 mg/dL
same,CARBON DIOXIDE,[2],28.33 mmol/L
same,CHLORIDE,[2],101.5 MEQ/L
same,CHOLESTEROL,[2],71.33 mg/dL
same,CREATINE PHOSPHOKINASE,[2],628.17 u/L
same,CREATININE,[2],0.19 mg/dL
same,GLUCOSE,[2],177.83 mg/dL
same,LACTATE DEHYDROGENASE,[2],500.5 u/L
same,LIPASE,[2],9.5 u/L
same,PHOSPHORUS,[2],12.3 mg/dL
same,POTASSIUM,[2],5.63 MEQ/L
same,SODIUM,[2],143.03 MEQ/L
same,TOTAL BILIRUBIN,[2],0.2 mg/dL
same,TOTAL PROTEIN,[2],6.02 G/DL
same,URIC ACID,[2],1.5 mg/dL
same,ABSOLUTE BASOPHIL,[3],0 CELLS/uL
same,ABSOLUTE EOSINOPHIL,[3],41.67 CELLS/uL
same,ABSOLUTE LYMPHOCYTE,[3],10763.67 CELLS/uL
same,ABSOLUTE MONOCYTE,[3],116.33 CELLS/uL
same,ABSOLUTE SEGMENTED NEUTROPHIL,[3],1178.33 CELLS/uL
same,BASOPHIL,[3],0%
same,EOSINOPHIL,[3],0.33%
same,ERYTHROCYTE COUNT,[3],5.35 x10E6/uL
same,HEMATOCRIT,[3],35.5%
same,HEMOGLOBIN,[3],13.67 G/DL
same,LEUKOCYTE COUNT,[3],12.1 x10E3/uL
same,LYMPHOCYTE,[3],89%
same,MEAN CORPUSCULAR HEMOGLOBIN,[3],25.6 pg
same,MEAN CORPUSCULAR HEMOGLOBIN CONCENTRATION,[3],38.47 G/DL
same,MEAN CORPUSCULAR VOLUME,[3],66.47 fL
same,MONOCYTE,[3],1%
same,NEUTROPHIL,[3],9.67%
same,NUCLEATED RED BLOOD CELLS,[3],0 /100WBC
same,PLATELET COUNT,[3],1353 x10E3/uL
same,ALANINE AMINOTRANSFERASE,[3],75 u/L
same,ALBUMIN,[3],3.9 G/DL
same,ALKALINE PHOSPHATASE,[3],286.67 u/L
same,ASPARTATE AMINOTRANSFERASE,[3],88 u/L
same,BLOOD UREA NITROGEN,[3],15 mg/dL
same,CARBON DIOXIDE,[3],30.67 mmol/L
same,CHLORIDE,[3],102 MEQ/L
same,CHOLESTEROL,[3],68 mg/dL
same,CREATINE PHOSPHOKINASE,[3],336.67 u/L
same,CREATININE,[3],0.15 mg/dL
same,GLUCOSE,[3],144.33 mg/dL
same,LACTATE DEHYDROGENASE,[3],285.33 u/L
same,LIPASE,[3],9.33 u/L
same,PHOSPHORUS,[3],11.33 mg/dL
same,POTASSIUM,[3],6.22 MEQ/L
same,SODIUM,[3],144.77 MEQ/L
same,TOTAL BILIRUBIN,[3],0.1 mg/dL
same,TOTAL PROTEIN,[3],5.5 G/DL
same,URIC ACID,[3],1.43 mg/dL
